# Reference: PubChem BioAssay (NCI)
#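 Interpolation was linear, between the two tested concentrations surrounding the appropriate level; five concentrations were tested over 48 hours in 96-well plates. At the TGI there is no net growth.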
# Tests used:
# Assay in all cases: growth of human tumour cells (NCI), 48 h
# COLO 205 colon = system: COLO 205 colon
# DU-145 prostate = system: DU-145 prostate
# EKVX NSCLC = system: EKVX NSCLC
# HCC-2998 colon = system: HCC-2998 colon
# HOP-62 NSCLC = system: HOP-62 NSCLC
# K-562 leukemia = system: K-562 leukemia
# OVCAR-4 ovarian = system: OVCAR-4 ovarian
# OVCAR-8 ovarian = system: OVCAR-8 ovarian
# PC-3 prostate = system: PC-3 prostate
# RPMI-8226 leukemia = system: RPMI-8226 leukemia
# SF-295 CNS = system: SF-295 CNS
# SK-MEL-5 melanoma = system: SK-MEL-5 melanoma
# TK-10 renal = system: TK-10 renal
# HOP-92 NSCLC = system: HOP-92 NSCLC
Structure (SMILES),TGI (COLO 205 colon),TGI (DU-145 prostate),TGI (EKVX NSCLC),TGI (HCC-2998 colon),TGI (HOP-62 NSCLC),TGI (K-562 leukemia),TGI (OVCAR-4 ovarian),TGI (OVCAR-8 ovarian),TGI (PC-3 prostate),TGI (RPMI-8226 leukemia),TGI (SF-295 CNS),TGI (SK-MEL-5 melanoma),TGI (TK-10 renal),TGI (HOP-92 NSCLC)
CCC1(CC)C(=O)NN(C(=O)c2ccc(Cl)cc2)C1=O,> 100 µM,> 100 µM,> 100 µM,> 100 µM,> 100 µM,> 100 µM,> 100 µM,> 100 µM,> 100 µM,> 100 µM,> 100 µM,> 100 µM,> 100 µM,–
N#CCN1CCN(CC#N)CCN(CC#N)CCN(CC#N)CC1,> 100 µM,> 100 µM,–,> 100 µM,> 100 µM,> 100 µM,> 100 µM,> 100 µM,> 100 µM,> 100 µM,> 100 µM,> 100 µM,> 100 µM,> 100 µM
CCOC(=O)CNC(=O)CNC(=O)CNC(=O)CNNc1c(OCc2ccccc2)c(=O)c1=O,> 100 µM,> 100 µM,> 100 µM,> 100 µM,> 100 µM,> 100 µM,> 100 µM,> 100 µM,> 100 µM,> 100 µM,–,> 100 µM,> 100 µM,–
CC(=O)c1c2c(cc3c1CC1(C3)Cc3cc4c(c(C(C)=O)c3C1)CCCC4)CCCC2,> 100 µM,–,> 100 µM,> 100 µM,> 100 µM,> 100 µM,> 100 µM,> 100 µM,> 100 µM,> 100 µM,> 100 µM,35.4 µM,> 100 µM,> 100 µM
CC(C)=CC[C@H]1C[C@@]2(CC=C(C)C)C(=O)/C(=C(/O)c3ccccc3)C(=O)[C@](CC=C(C)C)(C2=O)C1(C)C,–,–,20 µM,14.4 µM,29.3 µM,50.4 µM,26.4 µM,35 µM,19.3 µM,> 100 µM,17.8 µM,17.8 µM,20.6 µM,19.1 µM
COC(=O)C1=C(C(=O)OC)C(OO)(c2ccccc2)OC1=O (centres undefined),> 100 µM,> 100 µM,> 100 µM,> 100 µM,–,> 100 µM,> 100 µM,> 100 µM,> 100 µM,–,> 100 µM,> 100 µM,> 100 µM,> 100 µM
CC(=O)OC1CC2C(C)(C)OC(=O)CC(OC(C)=O)[C@]2(C)C2CCC3(C)C(=CCC3c3ccoc3)[C@]12C (some centres undefined),29.8 µM,–,> 100 µM,52.4 µM,96.6 µM,> 100 µM,> 100 µM,87.1 µM,–,> 100 µM,98.3 µM,> 100 µM,> 100 µM,29.9 µM
Cn1c(-c2cccs2)cc(-c2ccsc2)c1-c1cccs1,46.5 µM,> 100 µM,> 100 µM,> 100 µM,> 100 µM,> 100 µM,> 100 µM,> 100 µM,> 100 µM,–,> 100 µM,–,> 100 µM,> 100 µM
Cc1ncc([N+](=O)[O-])n1CCNC(=O)Cn1ccnc1[N+](=O)[O-],> 100 µM,> 100 µM,–,> 100 µM,> 100 µM,> 100 µM,–,> 100 µM,> 100 µM,–,> 100 µM,> 100 µM,> 100 µM,–
